From EP1431294A1, “VASCULAR WALL-SELECTIVE ACAT INHIBITOR” (Kowa Company Ltd., priority 2001, dated 2003)
One block for each molecule: values may come before it.

What was measured:
[1] = test system: lipid-loaded model of F1B hamster; assay: Arteriosclerotic model animal test (lipid-loaded F1B hamster); conditions: for dose from which suppression of lipid accumulation was effective / plasma cholesterol at doses effective in suppression of lipid accumulation: F1B hamsters; for dose from which suppression of lipid accumulation was effective: drug in high-fat feed; for dose from which suppression of lipid accumulation was effective / CE/FC Adrenal Gland / CE/FC Lipid Accumulation to Artery / CE/FC Liver / CE/FC Small Intestine: 10 weeks; for plasma cholesterol at doses effective in suppression of lipid accumulation: total cholesterol in plasma relative to control, Dunnett's test; for CE/FC Adrenal Gland / CE/FC Lipid Accumulation to Artery / CE/FC Liver / CE/FC Small Intestine: ratio to control (1.0)
Method: Male hamsters of a Bio F1B strain purchased from Nippon Charles River were randomly grouped so that each group comprised six. As from eight weeks age, they were loaded with a high-fat feed (0.3% of cholesterol and 10% of coconut oil) for ten weeks while the drug was administered by mixing with the feed. After ten weeks, blood was collected and cholesterol in plasma was measured. Further, arterywas excised after fixingbyperfusion with a 10% formalin solution. This was incised, lipid which was accumulated in the artery was stained with Oil Red O and the stained area was measured using an image analyzer.
A high-fat feed (0.3% of cholesterol and 10% of coconut oil) was prepared by way of compounding ratio of cholesterol : coconut oil : feed (CE-2) = 0.03:1:9. Incidentally, a high-fat feed was given to the control group and the administered period was 10 weeks.
Hamster under a non-fasted state was anesthetized, subj ected to an abdominal section to expose the abdominal artery and about 2.5 mL of blood were collected. The collected blood was centrifuged at 3, 000 rpm for 15 minutes to collect the plasma and then total cholesterol (TC) and free cholesterol (FC) in plasma were determined by a Cholesterol E-Test Wako (a cholesterol oxidase DAOS method) and a Free Cholesterol E-Test Wako (a cholesterol oxidase DAOS method), respectively.
About 500 mg of liver, small intestine and adrenal body were excised and washed with a physiological saline solution and lipid concentration in the tissues was measured. In the measurement, 10 mL of chloroform : methanol (2:1) as an extracting solution for lipid in the tissue were placed in the liver and the small intestine, homogenized at 3,000 rpm using a Polytron Homogenizer PT 3100 and allowed to stand at 4°C for one night. The extract was centrifuged at 1,500 rpm for 15 minutes, 0.2 mL of the supernatant liquid was evaporated to dryness using a vacuum pump, the residue was dissolved in 50 µL of isopropanol and each lipid was subjected to the same kits whereupon TC and FC were quantified. With regard to the adrenal body, it was finely cut using scissors and 0.5 mL of chloroform : methanol (2:1) was added thereto followed by being allowed to stand at 4°C for one night. That was centrifuged at 1,500 rpm for 15 minutes, 0.2 mL of the supernatant liquid was evaporated to dryness using a vacuum pump, the residue was dissolved in 50 µL of isopropanol and each lipid was subjected to the same kits whereupon TC and FC were quantified.
With regard to the total cholesterol (TC) in plasma in the group to which the drug was administered, the relative ratio to TC in the control group was used as an indicator while, with regard to the tissue, difference between TC and FC was defined as CE (cholesterol ester) and the lipid-constituting ratio, CE/FC, in each organ was determined whereupon their relative ratio to each control was calculated and used as an indicator. Thus, in those indicators, the control group was defined as 100% and the calculation using the following formula was carried out so as to use a plasma TC lowering action by ACAT inhibitory action to liver and small intestine of the group to which the drug was administered as an indicator and also to use the variation of CE/FC ratio by an ACAT inhibitory action to each organ as an indicator. Indicator (%) for total cholesterol in plasma = [(TC of drug-administered group)/(TC of the control group)] × 100 [formula] Indicator (%) for lipid constituting ratio in each organ = [(CE/FC of drug-administered group)/(CE/FC of the control group)] × 100 [formula]
After collection of the blood, a 18-G injection needle was inserted into apex and perfused with a physiological saline solution (120 mmHg) for about 5minutes. It was further perfused with a 10% neutral formalin buffer (120 mmHg) for about 5 minutes. Bulbar and thoracic artery was excised and fixed in a 10% formalin buffer.

ACAT [2] = biological target: T1, ACAT (Mus musculus, UniProt Q61263); assay: ACAT inhibitory activity test in J774 cells (anti-foaming action); format: cell-based
T1 construct: J774 cells or HepG2 cells were sown on a 24-well plate; endogenous in cells; host or cells: J774 cells
T1 sequence (Q61263 1-540): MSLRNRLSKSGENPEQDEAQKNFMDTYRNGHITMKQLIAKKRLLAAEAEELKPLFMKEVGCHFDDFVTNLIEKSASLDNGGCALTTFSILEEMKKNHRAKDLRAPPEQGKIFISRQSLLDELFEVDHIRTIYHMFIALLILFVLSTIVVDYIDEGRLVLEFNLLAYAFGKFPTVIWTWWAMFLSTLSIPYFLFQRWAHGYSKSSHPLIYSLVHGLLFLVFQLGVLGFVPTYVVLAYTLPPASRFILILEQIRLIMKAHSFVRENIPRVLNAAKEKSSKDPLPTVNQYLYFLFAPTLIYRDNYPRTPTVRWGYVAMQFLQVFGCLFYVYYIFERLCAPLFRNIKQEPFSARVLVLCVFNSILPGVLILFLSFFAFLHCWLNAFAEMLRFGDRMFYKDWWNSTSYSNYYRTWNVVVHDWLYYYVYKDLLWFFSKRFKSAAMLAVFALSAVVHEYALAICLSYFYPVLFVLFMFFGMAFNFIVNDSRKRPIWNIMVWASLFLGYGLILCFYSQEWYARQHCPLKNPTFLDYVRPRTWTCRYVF
Method: (§1) J774 cells or HepG2 cells were sown on a 24-well plate and incubation was carried out at 37°C for 24 hours in a 5% CO2 incubator using a Dulbecco's modified Eagle's medium for J774 cells and an Eagle's minimum essential medium for HepG2 cells (where both media contained 10% of fetal bovine serum). […] The medium was taken out, washed with PBS twice, extracted with 1.5 mL of hexane-isopropanol (3:2) and concentrated to dryness. The extract was dissolved in isopropanol containing 0.2 mL of 10% Triton X-100 and then total cholesterol (TC) and free cholesterol (FC) were determined by a Cholesterol E Test Wako (Wako Pure Chemical) and a Free Cholesterol E Test Wako (Wako Pure Chemical), respectively. The residue of the cell after extraction was solubilized with 0.25 mL of 2N NaOH at 37°C for 30 minutes and protein was determined by a BCA Protein Assay Reagent (Pierce). From the differencebetween TC and FC, amount of cholesterolester per protein was calculated and, from the comparative calculation with the control, IC50 value was determined.

ACAT [3] = assay: ACAT inhibitory activity test in HepG2 cells; format: cell-based; conditions: 25-hydroxycholesterol 10 µg/mL, 18 hours, cholesterol ester per protein
Method: as §1

[4] = Oral absorption test in rats under a fed condition (plasma concentration); format: in vivo; conditions: for AUC(0-inf) / Cmax: rat, plasma, po, 30 mg/kg, rats, fed, oral 30 mg/kg
Method: A solution of the compound of the present invention (dissolved in a mixture of water : PEG 400 = 1:4) or a suspension in 0.5% methyl cellulose (MC) was compulsorily administered per os at. the dose of 30 mg/kg to three rats under a fed condition. Blood after the administration was periodically collected and its concentration in plasma was measured.
The organic layer (upper layer) was collected, the solvent was evaporated in a nitrogen stream, the residue was dissolved in 0.2 mL of a mobile phase (refer to the following) and 80 µL thereof were measured under the following analytical conditions.
The organic layer was collected, the solvent was evaporated in a nitrogen stream, the residue was dissolved in 0.2 mL of a mobile phase (refer to the following) and 80 µL thereof were measured under the following condition for high-performance liquid chromatography. Condition for detection: • (Detector: Single-stage quadrupole mass spectrometer • Ionization method: Atmospheric pressure chemical ionization method • Temperature of nebulizer: 475°C • Corona voltage: 3 kV • Monitoring ion: m/z 569 (hydrogen addition ion of the compound of Example 78), 549 (hydrogen addition ion of the compound of Example 85)) Condition for separation: • (Column: Symmetry RP8 manufactured by Waters (3.0 mmφ × 150 mm) • Temperature of column: 45°C • Mobile phase: a solution where 0.1% ammonium formate (pH 4)/methanol/acetonitrile are mixed in […] • Flow rate: 0.8 mL/min)
To 150 µL of plasma were added a 0.1 mol/L aqueous solution of sodium hydroxide and 0.2 mL of an analogous compound (500 ng/mL of the compound of Example 28 of the Japanese Patent Application No. 8/158,743, i.e. 8-(benzimidazol-2-ylthio)-N-(2,6-diisopropylphenyl)octanamide as an internal standard, stirred and extracted with 6 mL of an isopropanol/hexane (5: 95) solution. The organic layer was collected, the solvent was evaporated in a nitrogen stream, the residue was dissolved in 0.2 mL of a mobile phase (refer to the following) and 80 µL thereof were measured under the following condition for high-performance liquid chromatography.

[5] = Water solubility in liquid I of the Japanese Pharmacopoeia; format: physicochemical
[6] = Oral absorption test in rats under a fed condition (plasma concentration); format: in vivo; conditions: rat, 30 mg/kg, medium 0.05N (Aq HCl)

SMILES: CC(C)c1cc(C(C)C)c(CC(=O)NS(=O)(=O)Oc2c(C(C)C)cccc2C(C)C)c(C(C)C)c1 [Cl-1011]
dose from which suppression of lipid accumulation was effective [1]: ≥ 1 mg/kg
plasma cholesterol at doses effective in suppression of lipid accumulation [1]: accompanied by a significant decrease of plasma cholesterol
CE/FC Adrenal Gland ([1]; dose 0.1 mg/kg in feed): 0.98
CE/FC Lipid Accumulation to Artery ([1]; dose 0.1 mg/kg in feed): 0.73
CE/FC Liver ([1]; dose 0.1 mg/kg in feed): 1.03
CE/FC Small Intestine ([1]; dose 0.1 mg/kg in feed): 0.92
CE/FC Adrenal Gland ([1]; dose 0.3 mg/kg in feed): 1.03
CE/FC Lipid Accumulation to Artery ([1]; dose 0.3 mg/kg in feed): 0.81
CE/FC Liver ([1]; dose 0.3 mg/kg in feed): 0.74
CE/FC Small Intestine ([1]; dose 0.3 mg/kg in feed): 0.82
CE/FC Adrenal Gland ([1]; dose 1 mg/kg in feed): 0.62
CE/FC Lipid Accumulation to Artery ([1]; dose 1 mg/kg in feed): 0.35
CE/FC Liver ([1]; dose 1 mg/kg in feed): 0.37
CE/FC Small Intestine ([1]; dose 1 mg/kg in feed): 0.60
CE/FC Adrenal Gland ([1]; dose 3 mg/kg in feed): 0.24
CE/FC Lipid Accumulation to Artery ([1]; dose 3 mg/kg in feed): 0.15
CE/FC Liver ([1]; dose 3 mg/kg in feed): 0.17
CE/FC Small Intestine ([1]; dose 3 mg/kg in feed): 0.08
CE/FC Adrenal Gland ([1]; dose 10 mg/kg in feed): 0.28
CE/FC Lipid Accumulation to Artery ([1]; dose 10 mg/kg in feed): 0
CE/FC Liver ([1]; dose 10 mg/kg in feed): 0.07
CE/FC Small Intestine ([1]; dose 10 mg/kg in feed): 0
difference of selectivities in each of the tissues ([1]; suppressing rate of lipid accumulation vs CE/FC ratio in liver, small intestine, adrenal body): a significant difference of selectivities was not found

IC50 (ACAT [2]; J774 cells, 25-hydroxycholesterol 10 µg/mL, 18 hours, cholesterol ester per protein): 0.46 µM
lowering of ACAT inhibitory activity (J774) (ACAT [2]; compared with the compound of Example 85 (19 nM)): about 24 fold
SMILES: CC(C)c1ccc(O)c(C(C)C)c1NC(=O)CN1CCN(CCSc2nc3cccc(C(F)(F)F)c3o2)CC1 [Comparative Compound, 2-[4-[2-(7-trifluoromethylbenzoxazol-2-ylthio)ethyl]piperazin-1-yl]-N-(2,6-diisopropyl-3-hydroxyphenyl)acetamide]

macrophage selectivity (IC50 (HepG2)/IC50 (J774)) (ACAT [2]): about 45 fold
IC50 (ACAT [3]): 2.9 µM
improvement of oral absorption ([4]; compared with Example 85, medium 0.5% methyl cellulose (MC) suspension, rats 30 mg/kg): about 9.4 fold
increase in oral absorption ([4]; compared with Example 85, medium water/PEG 400 (1:4), rats 30 mg/kg): about 8 fold
AUC(0-inf) ([4]; medium 0.5% MC Suspension): 639 ng·h/mL
Cmax ([4]; medium 0.5% MC Suspension): 167 ng/mL
AUC(0-inf) ([4]; medium PEG 400: Water (4:1)): 486 ng·h/mL
Cmax ([4]; medium PEG 400: Water (4:1)): 141 ng/mL
increase of solubility ([5]; compared with the lead compound (Example 85)): 5 fold
solubility ([5]; pH 1.2, simulated gastric fluid): 500 µg/mL
SMILES: CC(C)c1cc(O)cc(C(C)C)c1NC(=O)CN1CCN(CCSc2nc3cccc(C(F)(F)F)c3o2)CC1.Cl [Compound of the Invention, 2-[4-[2-(7-trifluoromethylbenzoxazol-2-ylthio)ethyl]piperazin-1-yl]-N-(2,6-diisopropyl-4-hydroxyphenyl)acetamide hydrochloride]
dose from which suppression of lipid accumulation was effective [1]: ≥ 3 mg/kg
plasma cholesterol at doses effective in suppression of lipid accumulation [1]: without a significant decrease of plasma cholesterol
CE/FC Adrenal Gland ([1]; dose 3 mg/kg in feed): 1.02
CE/FC Lipid Accumulation to Artery ([1]; dose 3 mg/kg in feed): 0.69
CE/FC Liver ([1]; dose 3 mg/kg in feed): 1.08
CE/FC Small Intestine ([1]; dose 3 mg/kg in feed): 1.16
CE/FC Adrenal Gland ([1]; dose 10 mg/kg in feed): 1.11
CE/FC Lipid Accumulation to Artery ([1]; dose 10 mg/kg in feed): 0.33
CE/FC Liver ([1]; dose 10 mg/kg in feed): 0.88
CE/FC Small Intestine ([1]; dose 10 mg/kg in feed): 1.02
CE/FC Adrenal Gland ([1]; dose 30 mg/kg in feed): 0.89
CE/FC Lipid Accumulation to Artery ([1]; dose 30 mg/kg in feed): 0.21
CE/FC Liver ([1]; dose 30 mg/kg in feed): 0.60
CE/FC Small Intestine ([1]; dose 30 mg/kg in feed): 0.91
CE/FC Adrenal Gland ([1]; dose 100 mg/kg in feed): 0.52
CE/FC Lipid Accumulation to Artery ([1]; dose 100 mg/kg in feed): 0.17
CE/FC Liver ([1]; dose 100 mg/kg in feed): 0.24
CE/FC Small Intestine ([1]; dose 100 mg/kg in feed): 0.20

AUC(0-inf) [6]: 295 ng·h/mL
Cmax [6]: 110 ng/mL
SMILES: CC(C)c1cccc(C(C)C)c1NC(=O)CN1CCN(CCSc2nc3ccccc3o2)CC1 [Example 1, 2-[4-[2-(benzoxazol-2-ylthio)ethyl]piperazin-1-yl]-N-(2,6-diisopropylphenyl) acetamide]
